Source: ChEMBL document CHEMBL1148370, “Studies toward the discovery of the next generation of antidepressants. 3. Dual 5-HT1A and serotonin transporter affinity within a class of N-aryloxyethylindolylalkylamines” (J Med Chem, 2004)

Assays:
[1] = molecular target: Sodium-dependent serotonin transporter (Homo sapiens, UniProt P31645); assay type: cell-based, JAR
[2] = molecular target: T1, Adrenergic receptor alpha-1 (Rattus norvegicus, UniProt P15823+P23944+P43140)
T1 sequence (P15823 whole entry): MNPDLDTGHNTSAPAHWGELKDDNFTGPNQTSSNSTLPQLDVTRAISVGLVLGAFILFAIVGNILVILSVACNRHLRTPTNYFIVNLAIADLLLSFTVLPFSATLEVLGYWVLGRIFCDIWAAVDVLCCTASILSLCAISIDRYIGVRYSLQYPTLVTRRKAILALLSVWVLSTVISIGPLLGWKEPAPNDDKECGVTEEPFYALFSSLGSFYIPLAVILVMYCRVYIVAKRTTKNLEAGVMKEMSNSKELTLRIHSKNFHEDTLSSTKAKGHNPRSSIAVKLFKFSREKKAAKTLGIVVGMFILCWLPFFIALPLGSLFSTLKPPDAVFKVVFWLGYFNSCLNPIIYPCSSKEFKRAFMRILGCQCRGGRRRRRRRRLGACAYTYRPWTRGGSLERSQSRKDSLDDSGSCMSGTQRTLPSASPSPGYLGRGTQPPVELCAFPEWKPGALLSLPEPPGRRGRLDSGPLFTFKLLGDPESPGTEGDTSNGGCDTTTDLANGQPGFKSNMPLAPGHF
T1 sequence (P23944 whole entry): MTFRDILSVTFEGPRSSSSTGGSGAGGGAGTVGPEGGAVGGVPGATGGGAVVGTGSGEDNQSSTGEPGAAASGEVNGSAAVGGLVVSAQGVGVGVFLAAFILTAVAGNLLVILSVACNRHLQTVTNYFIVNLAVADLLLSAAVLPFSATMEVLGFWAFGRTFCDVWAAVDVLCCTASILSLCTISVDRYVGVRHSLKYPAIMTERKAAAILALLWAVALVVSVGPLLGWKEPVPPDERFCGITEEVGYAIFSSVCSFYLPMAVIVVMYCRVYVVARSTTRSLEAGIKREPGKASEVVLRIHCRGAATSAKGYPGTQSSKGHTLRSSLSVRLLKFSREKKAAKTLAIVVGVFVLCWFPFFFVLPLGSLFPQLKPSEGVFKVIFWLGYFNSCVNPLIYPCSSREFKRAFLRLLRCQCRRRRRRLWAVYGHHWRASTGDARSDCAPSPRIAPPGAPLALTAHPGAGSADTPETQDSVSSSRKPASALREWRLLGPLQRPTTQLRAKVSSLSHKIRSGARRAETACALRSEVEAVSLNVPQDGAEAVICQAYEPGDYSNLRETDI
T1 sequence (P43140 whole entry): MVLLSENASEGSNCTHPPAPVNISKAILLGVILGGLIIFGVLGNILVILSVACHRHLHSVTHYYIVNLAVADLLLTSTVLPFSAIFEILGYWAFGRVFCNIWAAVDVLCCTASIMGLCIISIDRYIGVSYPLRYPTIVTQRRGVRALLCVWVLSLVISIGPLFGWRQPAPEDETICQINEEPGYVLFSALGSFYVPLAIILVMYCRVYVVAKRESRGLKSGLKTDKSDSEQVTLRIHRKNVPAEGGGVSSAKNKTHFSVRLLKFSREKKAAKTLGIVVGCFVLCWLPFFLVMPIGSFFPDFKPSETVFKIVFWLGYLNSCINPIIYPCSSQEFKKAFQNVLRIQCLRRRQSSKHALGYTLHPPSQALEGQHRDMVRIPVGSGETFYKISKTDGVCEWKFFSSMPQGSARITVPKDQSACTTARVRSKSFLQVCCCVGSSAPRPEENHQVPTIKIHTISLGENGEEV

[3] = molecular target: Sodium-dependent serotonin transporter (Rattus norvegicus, UniProt P31652)
[4] = molecular target: Adrenergic receptor alpha-1 (Rattus norvegicus) (UniProt P15823+P23944+P43140); assay: Percent inhibition against rat cortical alpha-1 adrenergic receptor labeled with [3H]prazosin radioligand was determined; assay type: protein assay; conditions: concentration not given here

Sodium-dependent serotonin transporter (Rattus norvegicus, UniProt P31652), sequence (P31652 whole entry): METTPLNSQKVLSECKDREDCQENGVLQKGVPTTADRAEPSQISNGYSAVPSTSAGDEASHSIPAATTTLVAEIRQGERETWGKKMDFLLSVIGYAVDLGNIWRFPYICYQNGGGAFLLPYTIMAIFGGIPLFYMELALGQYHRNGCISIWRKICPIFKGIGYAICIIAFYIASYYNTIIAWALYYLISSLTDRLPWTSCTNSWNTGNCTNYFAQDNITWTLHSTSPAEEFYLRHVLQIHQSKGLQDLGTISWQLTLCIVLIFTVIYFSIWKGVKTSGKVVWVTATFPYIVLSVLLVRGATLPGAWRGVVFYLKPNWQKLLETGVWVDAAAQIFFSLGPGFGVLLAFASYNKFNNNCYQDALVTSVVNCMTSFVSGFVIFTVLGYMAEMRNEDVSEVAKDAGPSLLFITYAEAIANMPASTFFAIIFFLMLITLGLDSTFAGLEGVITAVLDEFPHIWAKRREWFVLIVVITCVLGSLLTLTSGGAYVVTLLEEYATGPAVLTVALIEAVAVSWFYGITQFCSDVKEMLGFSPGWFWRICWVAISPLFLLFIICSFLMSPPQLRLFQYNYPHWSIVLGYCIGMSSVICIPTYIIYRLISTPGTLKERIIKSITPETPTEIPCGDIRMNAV
Sodium-dependent serotonin transporter (Homo sapiens, UniProt P31645), sequence (P31645 whole entry): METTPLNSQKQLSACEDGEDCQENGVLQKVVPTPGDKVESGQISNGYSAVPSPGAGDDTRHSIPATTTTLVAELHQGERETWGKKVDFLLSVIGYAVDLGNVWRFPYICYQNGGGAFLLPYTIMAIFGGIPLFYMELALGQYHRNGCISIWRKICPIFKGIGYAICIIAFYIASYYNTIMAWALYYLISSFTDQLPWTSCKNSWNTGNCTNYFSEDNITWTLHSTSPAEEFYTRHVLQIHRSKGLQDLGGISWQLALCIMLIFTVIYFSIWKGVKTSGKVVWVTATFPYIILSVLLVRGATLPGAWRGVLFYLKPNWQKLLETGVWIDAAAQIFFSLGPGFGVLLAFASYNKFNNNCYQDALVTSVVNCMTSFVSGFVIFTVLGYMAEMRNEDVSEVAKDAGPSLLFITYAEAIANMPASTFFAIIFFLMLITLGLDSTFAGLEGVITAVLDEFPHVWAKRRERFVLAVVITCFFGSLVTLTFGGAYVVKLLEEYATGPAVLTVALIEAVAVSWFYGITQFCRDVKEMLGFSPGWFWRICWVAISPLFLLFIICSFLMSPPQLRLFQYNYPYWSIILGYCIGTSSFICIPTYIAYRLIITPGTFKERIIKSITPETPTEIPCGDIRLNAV

IC50 [1] [nM]	Ki [2] [nM]	Ki [3] [nM]	inhibition [4] [%]	Structure (SMILES)
3790	3.4	120	–	Fc1ccc2[nH]cc(CCCNCCOc3ccccc3)c2c1
–	100	–	99	COc1ccccc1OCCNCCCCc1c[nH]c2ccccc12
84.7	100	13.5	80	Fc1ccc2[nH]cc(CCNCCOc3cccc4c3OCCO4)c2c1
2170	204	123	–	c1ccc2c(OCCNCCCc3c[nH]c4ccccc34)cccc2c1
61.5	9.2	1.17	–	Fc1cc2c(c(OCCNCCCc3c[nH]c4ccc(F)cc34)c1)OCC2
24.6	13.3	0.49	–	Fc1cc(OCCNCCCc2c[nH]c3ccc(F)cc23)c2c(c1)OCCO2
73	122	1.1	–	Fc1ccc2[nH]cc(CCCNCCOc3cccc4ncccc34)c2c1
28.1	27.7	–	–	Fc1ccc2[nH]cc(CCCNCCOc3cccc4ccoc34)c2c1
20.5	2.5	–	–	COc1ccc(F)cc1OCCNCCCc1c[nH]c2ccc(F)cc12
–	7.4	–	–	c1cnc2c(OCCNCCCc3c[nH]c4ccccc34)cccc2c1
–	4.8	23.5	–	COc1ccc(F)cc1OCCNCCc1c[nH]c2ccc(F)cc12
24.4	5.6	–	–	Fc1ccc2[nH]cc(CCCNCCOc3cccc4[nH]ccc34)c2c1
862	–	–	–	c1ccc2c(CCCCNCCOc3cccc4[nH]ccc34)c[nH]c2c1

The remaining lines, values behind:

Structure (SMILES)	IC50 [1] [nM]	Ki [2] [nM]	Ki [3] [nM]	inhibition [4] [%]
Fc1cc2c(c(OCCNCCc3c[nH]c4ccccc34)c1)OCCC2	42.2	4.4	–	–
Fc1cc2c(c(OCCNCCc3c[nH]c4ccc(F)cc34)c1)OCCC2	86.4	11.9	–	–
Fc1ccc2[nH]cc(CCCNCCOc3cccc4nccnc34)c2c1	20	52	1.2	–
Fc1cc2c(c(OCCNCCc3c[nH]c4ccc(F)cc34)c1)OCC2	254	100	–	85
Fc1ccc2[nH]cc(CCCNCCOc3cccc4c3OCC4)c2c1	9.7	100	–	85
Fc1ccc2[nH]cc(CCCNCCOc3cccc4c3OCCO4)c2c1	6.3	9.6	–	–
Fc1cc2c(c(OCCNCCCc3c[nH]c4ccc(F)cc34)c1)OCCC2	7	100	–	79
Fc1ccc2[nH]cc(CCCNCCOc3cc(Cl)cc4[nH]cnc34)c2c1	4.5	4.6	–	–
Fc1ccc2[nH]cc(CCCNCCOc3cccc4c3CCCC4)c2c1	305	–	–	–
COc1ccc(F)cc1OCCNCCc1c[nH]c2ccccc12	249	3.3	43	–
Fc1ccc2[nH]cc(CCCNCCOc3cccc4[nH]cnc34)c2c1	–	100	–	93
Fc1cc(OCCNCCCc2c[nH]c3ccc(F)cc23)c2occc2c1	–	34.3	2.2	–
c1ccc2c(CCCNCCOc3cccc4[nH]ccc34)c[nH]c2c1	154	100	–	89
COc1ccccc1OCCNCCCc1c[nH]c2ccc(F)cc12	20	–	–	95
